Data reported in ChEMBL document CHEMBL4342517, “Design, Synthesis, and Mechanism Study of Benzenesulfonamide-Containing Phenylalanine Derivatives as Novel HIV-1 Capsid Inhibitors with Improved Antiviral Activities” (J Med Chem, 2020).
Active and inactive are the calls of the source. No cut-off for these calls is given here.

Tests used:
TZM = assay: Cytotoxicity in uninfected human TZM-bl assessed as reduction in cell viability incubated for 1 day by Cyto-tox-Glo cytotoxicity assay; format: cell-based; conditions: 24 h
[1] = tested on: Human immunodeficiency virus 1; assay: Antiviral activity against HIV1 NL4-3 infected in human TZM-bl cells assessed as reduction in virus induced cytopathogenicity incubated for 1 day by luciferase reporter gene assay; format: functional, organism-based; conditions: Human immunodeficiency virus 1, NL4-3, TZM-bl, 24 h
[2] = human, microsomes
Description: Intrinsic clearance in human liver microsomes in presence of NADPH regenerating system by LC-MS/MS analysis

[3] = human, microsomes; remark: listed apart in the source
Description: Half life in human liver microsomes in presence of NADPH regenerating system by LC-MS/MS analysis

MT4 = assay: Cytotoxicity in mock-infected human MT4 assessed as reduction in cell viability incubated for 5 days by MTT assay; format: cell-based; conditions: mt4, 120 h
[4] = tested on: Human immunodeficiency virus 1; assay: Antiviral activity against HIV1 Env-pseudotyped virus in human U87.CD4.CCR5 target cells assessed as reduction in viral infection at late stage; format: functional, organism-based; conditions: Human immunodeficiency virus 1, U87/CD4/CCR5
[5] = tested on: Human immunodeficiency virus 1; assay: Antiviral activity against HIV1 Env-pseudotyped virus in human U87.CD4.CCR5 target cells assessed as reduction in viral infection at early stage; format: functional, organism-based; conditions: Human immunodeficiency virus 1, U87/CD4/CCR5
[6] = Stability in human plasma assessed as compound remaining level at 2 uM incubated for 120 mins at 37 degC by LC-MS/MS analysis; format: ADME, cell-free; conditions: 2 h
[7] = tested on: Human immunodeficiency virus 1; assay: Induction of increase in CA/p24 content in HIV1 NL4-3 infected in human TZM-bl cells at 10 uM by ELISA relative to control; format: functional
[8] = biological target: Structural capsid protein (Human immunodeficiency virus 1) (UniProt Q76129); assay: Induction of HIV1 NL4-3 capsid protein assembly at 50 uM measured every 1 min for 19 mins
Structural capsid protein (Human immunodeficiency virus 1), sequence (Q76129 as listed by the source): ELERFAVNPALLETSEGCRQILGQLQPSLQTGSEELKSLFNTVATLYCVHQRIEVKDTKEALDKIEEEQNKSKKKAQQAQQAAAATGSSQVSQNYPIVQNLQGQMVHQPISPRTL

[9] = biological target: T1, Structural capsid protein (Human immunodeficiency virus 1, UniProt Q76129); assay: Binding affinity to HIV1 NL4-3 capsid protein monomer by SPR analysis
T1 sequence (Q76129 whole entry): as the sequence (Q76129 as listed by the source) above

[10] = biological target: T1, Structural capsid protein; assay: Binding affinity to HIV1 NL4-3 capsid protein hexamer by SPR analysis
[11] = tested on: Human immunodeficiency virus 2; assay: Antiviral activity against HIV2 ROD infected in human MT4 cells assessed as reduction in virus-induced cell death incubated for 5 days by MTT assay; conditions: Human immunodeficiency virus 2, ISOLATE ROD, MT4, 120 h
[12] = tested on: Human immunodeficiency virus 1; assay: Antiviral activity against HIV1 3B infected in human MT4 cells assessed as reduction in virus-induced cell death incubated for 5 days by MTT assay; format: functional, organism-based; conditions: Human immunodeficiency virus 1, 3B, MT4, 120 h
[13] = biological target: Structural capsid protein (Human immunodeficiency virus 1) (UniProt Q76129); assay: Inhibition of HIV1 NL4-3 capsid protein assembly at 50 uM measured every 1 min for 19 mins

SMILES: COc1ccc(N(C)C(=O)[C@H](Cc2ccccc2)NC(=O)CNS(=O)(=O)c2ccccc2)cc1
- CC50 (TZM): > 41.5 µM
- EC50 [1]: 6.23 µM

SMILES: COc1ccc(N(C)C(=O)[C@H](Cc2ccccc2)NC(=O)CNS(=O)(=O)c2ccc(N)cc2)cc1
- CC50 (TZM): > 40.3 µM
- EC50 [1]: 6.65 µM

SMILES: O=C(O)Cc1ccccc1Nc1c(Cl)cccc1Cl [DICLOFENAC]
- CLH [2]: 93.6 µL/min/mg
- t1/2 [3]: 14.8 min

SMILES: COc1ccc(N(C)C(=O)[C@H](Cc2ccccc2)NC(=O)CN2CCN(S(=O)(=O)c3ccc(Cl)cc3)CC2=O)cc1
- CC50 (TZM): > 33.4 µM
- EC50 [1]: 1.05 µM

SMILES: COc1ccc(N(C)C(=O)[C@H](Cc2ccccc2)NC(=O)CN2CCN(S(=O)(=O)c3ccc(Br)cc3)CC2=O)cc1
- CC50 (TZM): > 31.1 µM
- EC50 [1]: 0.36 µM

SMILES: Cc1[nH]c2ccccc2c1CC(=O)N[C@@H](Cc1ccccc1)C(=O)N(C)c1ccccc1
- CC50 (MT4): 145 µM
- IC50 [4]: 0.23 µM
- CC50 (TZM): > 47 µM
- CLH [2]: 1080.3 µL/min/mg
- IC50 [5]: 0.056 µM
- Stability [6]: 69%
- Activity [7]: 40%
- Activity [8]: Active

SMILES: COc1ccc(N(C)C(=O)[C@H](Cc2ccccc2)NC(=O)CNS(=O)(=O)c2c(C)cc(C)cc2C)cc1
- CC50 (TZM): > 38.2 µM
- EC50 [1]: 10.7 µM

SMILES: COc1ccc(N(C)C(=O)[C@H](Cc2ccccc2)NC(=O)CN2C(=O)N(CC(=O)N[C@@H](Cc3ccccc3)C(=O)N(C)c3ccc(OC)cc3)S(=O)(=O)c3cc(F)ccc32)cc1
- CC50 (TZM): > 23.1 µM
- Kd [9]: 0.2 µM
- Kd [10]: 1.3 µM
- EC50 [1]: 3.82 µM

SMILES: COc1ccc(N(C)C(=O)[C@H](Cc2ccccc2)NC(=O)CN2C(=O)Nc3ccc(OC)cc3S2(=O)=O)cc1
- CC50 (TZM): > 36.2 µM
- EC50 [1]: 4.89 µM

SMILES: COc1ccc(N(C)C(=O)[C@H](Cc2ccccc2)NC(=O)CNS(=O)(=O)c2cccc([N+](=O)[O-])c2)cc1
- CC50 (TZM): > 38 µM
- EC50 [1]: 8.93 µM

SMILES: COc1ccc(N(C)C(=O)[C@H](Cc2ccccc2)NC(=O)CN2CCN(S(=O)(=O)c3cccc([N+](=O)[O-])c3)CC2=O)cc1
- CC50 (TZM): > 32.8 µM
- EC50 [1]: 0.67 µM

SMILES: COc1ccc(N(C)C(=O)[C@H](Cc2ccccc2)NC(=O)CN2C(=O)N(CC(=O)N[C@@H](Cc3ccccc3)C(=O)N(C)c3ccc(OC)cc3)S(=O)(=O)c3cc(Cl)ccc32)cc1
- CC50 (TZM): > 22.7 µM
- EC50 [1]: 4.77 µM

SMILES: COc1ccc(N(C)C(=O)[C@H](Cc2ccccc2)NC(=O)CNS(=O)(=O)c2cccc(N)c2)cc1
- CC50 (TZM): > 40.3 µM
- EC50 [1]: 8.26 µM

SMILES: COc1ccc(N(C)C(=O)[C@H](Cc2ccccc2)NC(=O)CNS(=O)(=O)c2ccc(C)cc2)cc1
- CC50 (TZM): > 40.4 µM
- EC50 [1]: 6.26 µM

SMILES: COc1ccc(N(C)C(=O)[C@H](Cc2ccccc2)NC(=O)CNS(=O)(=O)c2ccc(F)cc2)cc1
- CC50 (TZM): > 40 µM
- EC50 [1]: 6.81 µM

SMILES: COc1ccc(N(C)C(=O)[C@H](Cc2ccccc2)NC(=O)CN2CCN(S(=O)(=O)c3cccc(F)c3)CC2=O)cc1
- CC50 (TZM): > 34.3 µM
- EC50 [1]: 0.45 µM

SMILES: COc1ccc(N(C)C(=O)[C@H](Cc2ccccc2)NC(=O)CN2CCN(S(=O)(=O)c3ccccc3F)CC2=O)cc1
- CC50 (TZM): > 34.3 µM
- EC50 [1]: 0.48 µM

SMILES: COc1ccc(N(C)C(=O)[C@H](Cc2ccccc2)NC(=O)CN2CCN(S(=O)(=O)c3ccc([N+](=O)[O-])cc3)CC2=O)cc1
- CC50 (MT4): 8.89 µM
- CC50 (TZM): > 32.8 µM
- EC50 [11]: 0.16 µM
- EC50 [12]: 4.9 µM
- EC50 [1]: 0.3 µM

SMILES: COc1ccc(N(C)C(=O)[C@H](Cc2ccccc2)NC(=O)CN2CCN(S(=O)(=O)c3ccccc3N)CC2=O)cc1
- CC50 (TZM): > 34.5 µM
- EC50 [1]: 0.54 µM

SMILES: COc1ccc(N(C)C(=O)[C@H](Cc2ccccc2)NC(=O)CNS(=O)(=O)c2ccccc2[N+](=O)[O-])cc1
- CC50 (TZM): > 38 µM
- EC50 [1]: 8.74 µM

SMILES: COc1ccc(N(C)C(=O)[C@H](Cc2ccccc2)NC(=O)CN2C(=O)N(CC(=O)N[C@@H](Cc3ccccc3)C(=O)N(C)c3ccc(OC)cc3)S(=O)(=O)c3cc(Br)ccc32)cc1
- CC50 (TZM): > 21.6 µM
- EC50 [1]: 5.62 µM

SMILES: COc1ccc(N(C)C(=O)[C@H](Cc2ccccc2)NC(=O)CN2CCN(S(=O)(=O)c3ccc(F)cc3)CC2=O)cc1
- CC50 (TZM): 25.7 µM
- EC50 [1]: 1.06 µM

SMILES: COc1ccc(N(C)C(=O)[C@H](Cc2ccccc2)NC(=O)CNS(=O)(=O)c2ccc(OC)cc2)cc1
- CC50 (TZM): > 39.1 µM
- EC50 [1]: 10.4 µM

SMILES: COc1ccc(N(C)C(=O)[C@H](Cc2ccccc2)NC(=O)CN2CCN(S(=O)(=O)c3ccc(OC)cc3)CC2=O)cc1
- CC50 (TZM): > 33.6 µM
- EC50 [1]: 0.64 µM

SMILES: COc1ccc(N(C)C(=O)[C@H](Cc2ccccc2)NC(=O)CN2CCN(S(=O)(=O)c3ccccc3[N+](=O)[O-])CC2=O)cc1
- EC50 [1]: 1 µM

SMILES: COc1ccc(N(C)C(=O)[C@H](Cc2ccccc2)NC(=O)CN2CCN(S(=O)(=O)c3cccc(N)c3)CC2=O)cc1
- CC50 (TZM): > 34.5 µM
- Kd [9]: 10 µM
- Kd [10]: 3.02 µM
- EC50 [1]: 0.33 µM

SMILES: COc1ccc(N(C)C(=O)[C@H](Cc2ccccc2)NC(=O)CNS(=O)(=O)c2ccc(Cl)cc2)cc1
- CC50 (TZM): > 38.8 µM
- EC50 [1]: 9.88 µM

SMILES: COc1ccc(N(C)C(=O)[C@H](Cc2ccccc2)NC(=O)CN2CCN(S(=O)(=O)c3ccc(C)cc3)CC2=O)cc1
- CC50 (TZM): > 34.6 µM
- EC50 [1]: 0.5 µM

SMILES: COc1ccc(N(C)C(=O)[C@H](Cc2ccccc2)NC(=O)CNS(=O)(=O)c2ccc([N+](=O)[O-])cc2)cc1
- CC50 (TZM): > 38 µM
- EC50 [1]: > 38 µM

SMILES: COc1ccc(N(C)C(=O)[C@H](Cc2ccccc2)NC(=O)CN2C(=O)Nc3ccc(C)cc3S2(=O)=O)cc1
- CC50 (TZM): > 37.3 µM
- EC50 [1]: 5.96 µM

SMILES: COc1ccc(N(C)C(=O)[C@H](Cc2ccccc2)NC(=O)CNS(=O)(=O)c2ccccc2N)cc1
- CC50 (TZM): > 40.3 µM
- EC50 [1]: 9.06 µM

SMILES: COc1ccc(N(C)C(=O)[C@H](Cc2ccccc2)NC(=O)CN2C(=O)Nc3ccccc3S2(=O)=O)cc1
- CC50 (MT4): 130 µM
- IC50 [4]: 2.44 µM
- CC50 (TZM): > 38.3 µM
- IC50 [5]: 1.94 µM
- EC50 [11]: 2.72 µM
- EC50 [12]: 6.07 µM
- EC50 [1]: 2.11 µM
- inhibition [13]: Active

SMILES: COc1ccc(N(C)C(=O)[C@H](Cc2ccccc2)NC(=O)CNS(=O)(=O)c2cc(C)cc(C)c2)cc1
- CC50 (TZM): > 39.2 µM
- EC50 [1]: 9.22 µM

SMILES: COc1ccc(N(C)C(=O)[C@H](Cc2ccccc2)NC(=O)CN2CCN(S(=O)(=O)c3ccccc3)CC2=O)cc1
- CC50 (MT4): 109 µM
- CC50 (TZM): > 35.4 µM
- EC50 [11]: 0.032 µM
- EC50 [12]: 0.71 µM
- EC50 [1]: 0.37 µM

SMILES: COc1ccc(N(C)C(=O)[C@H](Cc2ccccc2)NC(=O)CNS(=O)(=O)c2c(C(C)C)cc(C(C)C)cc2C(C)C)cc1
- CC50 (TZM): > 32.9 µM
- EC50 [1]: 7.9 µM

SMILES: COc1ccc(N(C)C(=O)[C@H](Cc2ccccc2)NC(=O)CNS(=O)(=O)c2cccc(F)c2)cc1
- CC50 (MT4): 136 µM
- IC50 [4]: 4.2 µM
- CC50 (TZM): > 40 µM
- IC50 [5]: 8.22 µM
- EC50 [11]: 20.1 µM
- EC50 [12]: 24.5 µM
- EC50 [1]: 5.61 µM
- inhibition [13]: Active

SMILES: COc1ccc(N(C)C(=O)[C@H](Cc2ccccc2)NC(=O)CNS(=O)(=O)c2ccccc2F)cc1
- CC50 (TZM): > 40 µM
- EC50 [1]: 10.8 µM

SMILES: COc1ccc(N(C)C(=O)[C@H](Cc2ccccc2)NC(=O)CNS(=O)(=O)c2ccc(Br)cc2)cc1
- CC50 (TZM): > 35.7 µM
- EC50 [1]: 8.21 µM
